The values below come from ChEMBL document CHEMBL1135191, “Novel cyclourethane-derived HIV protease inhibitors: a ring-closing olefin metathesis based strategy” (Bioorg Med Chem Lett, 2002).

Broadly, the Ki is the dissociation constant of the complex between target and ligand, obtained from inhibition or displacement.

A value given as a limit tells only on which side of the number the result lay.

The target in the first assay is Human immunodeficiency virus type 1 protease (Human immunodeficiency virus 1) (UniProt Q72874).
Conditions: not given
`CC(C)(C)NC(=O)[C@@H]1C[C@@H]2CCCC[C@@H]2CN1C[C@@H](O)[C@H](Cc1ccccc1)NC(=O)[C@H](CC(N)=O)NC(=O)c1ccc2ccccc2n1` came in with an ID50 of 18 nM.

The next assay addresses Human immunodeficiency virus type 1 protease (Human immunodeficiency virus 1, UniProt Q72874). As to the kind of experiment: Compound was tested for its inhibitory potency against human immunodeficiency virus -1 (HIV-1 protease).
Conditions: not given
Turning to `C=CCCCCCCCOC(=O)N(CC(C)CC=C)CC(O)C(Cc1ccccc1)NC(=O)O[C@H]1CO[C@H]2OCC[C@H]21` (some centres not stated), the Ki was over 1000 nM.
The same measure, in the same setting: for `C=CCCCCCCCCN(CC(O)C(Cc1ccccc1)NC(=O)O[C@H]1CO[C@H]2OCC[C@H]21)C(=O)OC(CC=C)c1ccccc1` (some centres not stated) the value was over 1000 nM.
On the same count and under the same terms, the figure for `C=CCCCCCCCCOC(=O)N(CC(O)C(Cc1ccccc1)NC(=O)O[C@H]1CO[C@H]2OCC[C@H]21)C(C)CC=C` (some centres not stated) is over 1000 nM; for `O=C(NC(Cc1ccccc1)C(O)CN1CCCCCCCCC/C=C/CCOC1=O)O[C@H]1CO[C@H]2OCC[C@H]21` (some centres not stated) it is 88 nM.
Still for that read-out and setting: for `O=C(NC(Cc1ccccc1)C(O)CN1CCCCCCCCCCCC(c2ccccc2)OC1=O)O[C@H]1CO[C@H]2OCC[C@H]21` (some centres not stated) the value was 357 nM; for `O=C(NC(Cc1ccccc1)C(O)CN1C/C=C\CCCCCCCC(c2ccccc2)OC1=O)O[C@H]1CO[C@H]2OCC[C@H]21` (some centres not stated), 229 nM.
In turn, `CC1CCCCCCCCCCCOC(=O)N1CC(O)C(Cc1ccccc1)NC(=O)O[C@H]1CO[C@H]2OCC[C@H]21` (some centres not stated) returned a Ki of 30 nM.
On the same count and under the same terms, the figure for `COc1ccc(S(=O)(=O)N(CC(C)C)CC(O)C(Cc2ccccc2)NC(=O)O[C@H]2CO[C@H]3OCC[C@H]32)cc1` (some centres not stated) is 0.015 nM; for `O=C(NC(Cc1ccccc1)C(O)CN1CCCC/C=C/CCCCCCC(c2ccccc2)OC1=O)O[C@H]1CO[C@H]2OCC[C@H]21` (some centres not stated) it is 162 nM.
`CC1C/C=C\CCCCCCCCCOC(=O)N1CC(O)C(Cc1ccccc1)NC(=O)O[C@H]1CO[C@H]2OCC[C@H]21` (some centres not stated) displayed a Ki of 53 nM.
Still for that read-out and setting: the figure for `CC1CCCCCCCCCCOC(=O)N(CC(O)C(Cc2ccccc2)NC(=O)O[C@H]2CO[C@H]3OCC[C@H]32)C1` (some centres not stated) is 6.1 nM.
Same read-out and setting: the figure for `C=CCCCCCCCCOC(=O)N(CC=C)CC(O)C(Cc1ccccc1)NC(=O)O[C@H]1CO[C@H]2OCC[C@H]21` (some centres not stated) is over 1000 nM; for `C=CCCCCCCCC(OC(=O)N(CC=C)CC(O)C(Cc1ccccc1)NC(=O)O[C@H]1CO[C@H]2OCC[C@H]21)c1ccccc1` (some centres not stated) it is over 1000 nM.
Turning to `O=C(NC(Cc1ccccc1)C(O)CN1CCCCCCCCCCCOC1=O)O[C@H]1CO[C@H]2OCC[C@H]21` (some centres not stated), the Ki amounted to 80 nM.
In turn, `O=C(NC(Cc1ccccc1)C(O)CN1CCCCCCCCCCCCOC1=O)O[C@H]1CO[C@H]2OCC[C@H]21` (some centres not stated) returned a Ki of 14 nM.
On the same count and under the same terms, the figure for `O=C(NC(Cc1ccccc1)C(O)CN1C/C=C\CCCCCCCCOC1=O)O[C@H]1CO[C@H]2OCC[C@H]21` (some centres not stated) is 125 nM; for `O=C(NC(Cc1ccccc1)C(O)CN1CCCCCCCCCCCCC(c2ccccc2)OC1=O)O[C@H]1CO[C@H]2OCC[C@H]21` (some centres not stated) it is 268 nM.
Same read-out and setting: the figure for `C=CCCCCCCC(OC(=O)N(CCCCC=C)CC(O)C(Cc1ccccc1)NC(=O)O[C@H]1CO[C@H]2OCC[C@H]21)c1ccccc1` (some centres not stated) is 444 nM; for `CC(C)(C)NC(=O)[C@@H]1C[C@@H]2CCCC[C@@H]2CN1CC(O)C(Cc1ccccc1)NC(=O)O[C@H]1CO[C@H]2OCC[C@H]21` (some centres not stated) it is 2 nM.
Still for that read-out and setting: for `O=C(NC(Cc1ccccc1)C(O)CN1CCCCCCCCCCC(c2ccccc2)OC1=O)O[C@H]1CO[C@H]2OCC[C@H]21` (some centres not stated) the value was 189 nM; for `O=C(NC(Cc1ccccc1)C(O)CN1CCCCCCCCC/C=C/CC(c2ccccc2)OC1=O)O[C@H]1CO[C@H]2OCC[C@H]21` (some centres not stated), 167 nM; for `C=CCCCCCCCCN(CC(O)C(Cc1ccccc1)NC(=O)O[C@H]1CO[C@H]2OCC[C@H]21)C(=O)OCCC=C` (some centres not stated), over 1000 nM.
`CC1C/C=C/CCCCCCCCOC(=O)N(CC(O)C(Cc2ccccc2)NC(=O)O[C@H]2CO[C@H]3OCC[C@H]32)C1` (some centres not stated) returned a Ki of 11 nM.

The subject of another assay is MT4. As to the kind of experiment: Inhibitory activity against HIV-1 virus in MT-4 human T-lymphoid cells. In kind it is functional. The following applies: read-out: ID50 (the source's name).
`CC1CCCCCCCCCCOC(=O)N(CC(O)C(Cc2ccccc2)NC(=O)O[C@H]2CO[C@H]3OCC[C@H]32)C1` (some centres not stated): the IC50 was 2500 nM.

For another assay, the system named is Human immunodeficiency virus 1. As to the kind of experiment: Compound was tested for its antiviral potency against human immunodeficiency virus type 1. In kind it is functional. The following applies: read-out: ID50 (the source's name).
`COc1ccc(S(=O)(=O)N(CC(C)C)CC(O)C(Cc2ccccc2)NC(=O)O[C@H]2CO[C@H]3OCC[C@H]32)cc1` (some centres not stated): the IC50 came to 1.4 nM.
Same read-out and setting: the figure for `CC(C)(C)NC(=O)[C@@H]1C[C@@H]2CCCC[C@@H]2CN1CC(O)C(Cc1ccccc1)NC(=O)O[C@H]1CO[C@H]2OCC[C@H]21` (some centres not stated) is 50 nM.
